From ChEMBL document CHEMBL1153260, “The synthesis of aminobenzazepinones as anti-phenylalanine dipeptide mimics and their use in nep inhibition” (Bioorg Med Chem Lett, 1996) come the findings set out here.

This test addresses T1, Neprilysin (Rattus norvegicus, UniProt P07861).
T1 sequence (P07861 whole entry): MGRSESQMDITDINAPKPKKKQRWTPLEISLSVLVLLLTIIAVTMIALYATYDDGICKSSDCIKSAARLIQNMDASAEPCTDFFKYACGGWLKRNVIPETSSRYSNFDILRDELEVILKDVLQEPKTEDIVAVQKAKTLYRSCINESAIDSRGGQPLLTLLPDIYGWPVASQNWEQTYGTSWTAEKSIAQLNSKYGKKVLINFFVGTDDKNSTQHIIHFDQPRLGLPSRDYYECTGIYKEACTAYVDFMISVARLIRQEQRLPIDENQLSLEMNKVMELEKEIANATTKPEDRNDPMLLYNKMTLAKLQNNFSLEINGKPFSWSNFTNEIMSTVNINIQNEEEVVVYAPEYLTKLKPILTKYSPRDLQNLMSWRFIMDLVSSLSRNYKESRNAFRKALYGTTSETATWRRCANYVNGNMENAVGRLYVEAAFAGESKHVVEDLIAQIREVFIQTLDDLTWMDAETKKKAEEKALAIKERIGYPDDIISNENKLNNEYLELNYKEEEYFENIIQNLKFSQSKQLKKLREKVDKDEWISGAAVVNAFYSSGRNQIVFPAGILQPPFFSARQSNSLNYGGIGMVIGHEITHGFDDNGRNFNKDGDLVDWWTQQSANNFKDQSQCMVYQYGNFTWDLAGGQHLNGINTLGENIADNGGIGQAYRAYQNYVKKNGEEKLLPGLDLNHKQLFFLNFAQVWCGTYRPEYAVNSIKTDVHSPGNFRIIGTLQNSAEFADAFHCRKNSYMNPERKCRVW
The test can be described thus: Compound was tested for inhibition of neutral endopeptidase (NEP).
For orientation: Ki means a dissociation constant, usually derived from enzyme kinetics or from competition with a known ligand. As for `CC(C)CC(C(=O)O)N1CCO[C@@H](c2ccccc2)[C@H](NC(=O)[C@H](S)Cc2ccccc2)C1=O` (single isomer, unassigned), affinity was put at a Ki of 330 nM.

Consider `CC(C)C[C@@H](C(=O)O)N1Cc2ccccc2C[C@H](NC(=O)[C@H](S)Cc2ccccc2)C1=O`, for which the affinity corresponds to a Ki of 0.4 nM.

With `O=C(O)C1CCCC2c3ccccc3C[C@H](NC(=O)[C@H](S)Cc3ccccc3)C(=O)N12` (stereo partly drawn), the affinity, expressed as Ki, was 0.07 nM.
